With `Cc1ccc(-c2nn(C3CCN(C)CC3)cc2-c2ccnc(Nc3ccc(CN4CCN(C)CC4)cc3)n2)cc1` [Example 85, [4-(4-Methyl-piperazin-1-ylmethyl)-phenyl]-{4-[1-(1-methyl-piperidin-4-yl)-3-p-tolyl-1H-pyrazol-4-yl]-pyrimidin-2-yl}-amine], the melting point (as a rule, the temperature, or range, at which the solid turns liquid) turned out to be 174 °C.

In turn, `CN1CCN(Cc2ccc(Nc3nccc(-c4c[nH]nc4-c4cccc(C(F)(F)F)c4)n3)cc2)CC1` [Example 110, [4-(4-Methyl-piperazin-1-ylmethyl)-phenyl]-{4-[3-(3-trifluoromethyl-phenyl)-1H-pyrazol-4yl]-pyrimidin-2-yl}-amine] yielded a melting point of 221 °C.

Take `CN1CCC(n2cc(-c3ccnc(Nc4ccc(CN5CCN(C)CC5)cc4)n3)c(-c3ccc(Cl)cc3)n2)CC1` [Example 80, {4-[3-(4-Chloro-phenyl)-1-(1-methyl-piperidin-4-yl)-1H-pyrazol-4yl]-pyrimidin-2-yl}-[4-(4-methyl-piperazin-1-yl-methyl)-phenyl]-amine]: the melting point stood at 164 °C.

The molecule `COc1cccc(Nc2nccc(-c3cn(CC4CCN(C)CC4)nc3-c3ccc(Cl)cc3)n2)c1` [Example 107, {4-[3-(4-Chloro-phenyl)-1-(1methyl-piperidin-4-ylmethyl)-1H-pyrazol-4-yl]-pyrimidin-2-yl}-(3-methoxy-phenyl)-amine] returned a melting point of 65 °C.

For the molecule `CC1(C)CC(NCc2ccc(Nc3nccc(-c4c[nH]nc4-c4ccccc4)n3)cc2)CC(C)(C)N1` [Example 120, [4(3-Phenyl-1H-pyrazol-4-yl)-pyrimidin-2-yl]-{4[(2,2,6,6-tetramethyl-piperidin-4-ylamino)-methyl]-phenyl}-amine], the melting point is 213 °C.

The molecule `Cc1ccc(-c2nn(CCN(C)C)cc2-c2ccnc(Nc3ccc(N4CCN(C)CC4)cc3)n2)cc1` [Example 55, {4-[1-(2-Dimethylamino-ethyl)-3-p-tolyl-1H-pyrazol-4-yl]-pyrimidin-2-yl}-[4-(4-methyl-piperazin-1-yl)-phenyl]-amine] returned a melting point of 174 °C.

Regarding `COc1ccc(Nc2nccc(-c3cnn(CCN(C)C)c3-c3ccc(Cl)cc3)n2)cc1OC` [Example 73, {4-[5-(4-Chloro-phenyl)-1-(2-dimethylamino-ethyl)-1H-pyrazol-4-yl]-pyrimidin-2-yl}-(3,4-dimethoxy-phenyl)-amine], the melting point was determined as 157 °C.

Molecule `COc1ccc(Nc2nccc(-c3c[nH]nc3-c3ccc(Cl)cc3)n2)cc1OC` [Example 68, {4-[3-(4-Chloro-phenyl)-1H-pyrazol-4yl]-pyrimidin-2-yl}-(3,4-dimethoxy-phenyl)-amine] displayed a melting point of 261 °C.

For `CN1CCN(Cc2ccc(Nc3nccc(-c4cnn(C)c4-c4ccc(Cl)cc4)n3)cc2)CC1` [Example 79, {4-[5-(4Chloro-phenyl)-1-methyl-1H-pyrazol-4-yl]-pyrimidin-2-yl}-[4-(4-methyl-piperazin-1-ylmethyl)-phenyl]-amine], the melting point was 186 °C.

Turning to `Cc1ccc(-c2c(-c3ccnc(Nc4ccc(CN5CCN(C)CC5)cc4)n3)cnn2C)cc1` [Example 65, [4-(4-Methyl-piperazin-1-ylmethyl)-phenyl]-[4(1-methyl-5-p-tolyl-1H-pyrazol-4-yl)-pyrimidin-2-yl]-amine], the melting point came to 192 °C.

For the molecule `COc1cc(Nc2nccc(-c3cn(CCN(C)C)nc3-c3ccc(Cl)cc3)n2)cc(OC)c1OC` [Example 70, {4-[3-(4-Chloro-phenyl)-1-(2-dimethylamino-ethyl)-1H-pyrazol-4-yl]-pyrimidin-2-yl}-(3,4,5-trimethoxy-phenyl)-amine], the melting point was 150 °C.

As for `CCN1CCN(Cc2ccc(Nc3nccc(-c4cn(C)nc4-c4ccc(C)cc4)n3)cc2)CC1` [Example 117, [4-(4-Ethyl-piperazin-1-ylmethyl)-phenyl]-[4-(1-methyl-3-p-tolyl-1H-pyrazol-4-yl)-pyrimidin-2-yl]-amine], the melting point was found to be 88 °C.

In turn, `CCN1CCN(Cc2ccc(Nc3nccc(-c4c[nH]nc4-c4ccc(Cl)cc4)n3)cc2)CC1` [Example 114, {4-[3-(4-Chloro-phenyl)-1H-pyrazol-4yl]-pyrimidin-2-yl}-[4-(4-ethyl-piperazin-1-ylmethyl)-phenyl]-amine] gave a melting point of 247 °C.

`CCN1CCN(Cc2ccc(Nc3nccc(-c4cnn(C)c4-c4ccc(C)cc4)n3)cc2)CC1` [Example 118, [4-(4-Ethyl-piperazin-1-ylmethyl)-phenyl]-[4-(1-methyl-5-p-tolyl-1H-pyrazol-4-yl)-pyrimidin-2-yl]-amine] showed a melting point of 82 °C.

Molecule `COc1cc(Nc2nccc(-c3cnn(CCN(C)C)c3-c3ccc(Cl)cc3)n2)cc(OC)c1OC` [Example 71, {4-[5-(4-Chloro-phenyl)-1-(2-dimethylamino-ethyl)-1H-pyrazol-4-yl]-pyrimidin-2-yl}-(3,4,5-trimethoxy-phenyl)-amine] registered a melting point of 153 °C.

`Cc1ccc(-c2nn(C)cc2-c2ccnc(Nc3ccc(CN4CCN(C)CC4)cc3)n2)cc1` [Example 66, [4-(4-Methyl-piperazin-1-ylmethyl)-phenyl]-[4-(1-methyl-3-p-tolyl-1H-pyrazol-4-yl)-pyrimidin-2-yl]-amine] yielded a melting point of 151 °C.

In the case of `Cc1cccc(-c2n[nH]cc2-c2ccnc(Nc3ccc(N4CCN(C)CC4)cc3)n2)c1C` [Example 50, {4-[3-(2,3-Dimethyl-phenyl)-1H-pyrazol-4-yl]-pyrimidin-2-yl}-[4-(4-methyl-piperazin-1-yl)phenyl]-amine], the melting point is 305 °C.

`CN1CCN(c2ccc(Nc3nccc(-c4c[nH]nc4-c4ccccc4Cl)n3)cc2)CC1` [Example 52, {4-[3-(2-Chloro-phenyl)-1H-pyrazol-4-yl]-pyrimidin-2-yl}-[4-(4-methyl-piperazin-1-yl)-phenyl]-amine] displayed a melting point of 310 °C.

`COc1cc(Nc2nccc(-c3c[nH]nc3-c3ccc(Cl)cc3)n2)cc(OC)c1OC` [Example 67, {4-[3-(4-Chloro-phenyl)-1H-pyrazol-4-yl]-pyrimidin-2-yl}-(3,4,5-trimethoxy-phenyl)-amine] displayed a melting point of 271 °C.

Source of the values: patent US7691855B2, “Phenyl-[4-(3-phenyl-1h-pyrazol-4-yl)-pyrimidin-2-yl)-amine derivatives” (Novartis AG, priority 2002, dated 2010).
